Laboratory results published in PMC2939063, “In Vitro and In Vivo Studies of the Trypanocidal Properties of WRR-483 against Trypanosoma cruzi” (PLoS Neglected Tropical Diseases, 2010).
Where “and” joins values, the source holds several entries; their conditions need not be identical. Equal entries are not always repeated. Entries after “also recorded” stand apart in the source; their conditions may differ.

How the values were obtained:
Cruzain = biological target: T1, Cruzain (Trypanosoma cruzi, UniProt P25779); assay: Cruzain enzyme assay (acetate buffer pH 5.5, Z-Phe-Arg-AMC); assay type: biochemical; conditions: 100 mM sodium acetate pH 5.5, 5 mM DTT
T1 construct: made in house
Experimental: Cruzain[27],[28], rhodesain [29], and tbcatB [30] were recombinantly expressed as described previously. TbcatB assays were performed as described previously.[31] Cruzain (2 nM) or rhodesain (3 nM) was incubated with 0.5 to 10 µM inhibitor concentration in 100 mM sodium acetate at pH 5.5, containing 5 mM DTT (buffer A) for 5 min at room temperature. Then buffer A containing Z-Phe-Arg-AMC (Bachem, K M = 1 µM) was added to enzyme inhibitor to give 20 µM substrate concentration in 200 µL, and the increase in fluorescence (excitation at 355 nm and emission at 460 nm) was followed with an automated microtiter plate spectrofluorometer (Molecular Devices, Flex station). Inhibitor stock solutions were prepared at 20 mM in DMSO, and serial dilutions were made in DMSO (0.7% DMSO in assay). Controls were performed using enzyme alone and enzyme with DMSO. IC50 values were determined graphically using inhibitor concentrations in the linear portion of a plot of inhibition versus log[I] […]
Inhibitor dilutions which produce simple exponential progress curves over a wide range of k obs, were used to determine kinetic parameters. The value of k obs, the rate constant for loss of enzyme activity, was determined from an equation for pseudo first order dynamics using Prism 4.0 (GraphPad). When k obs varied linearly with inhibitor concentration, k ass was determined by linear regression analysis. […]

[1] = tested on: T. cruzi CA-I/72 infected C3H mice; assay: Murine model of acute Chagas' disease; assay type: in vivo, mouse; parameters: key to Histopathology, Heart / Histopathology, Liver / Histopathology, Spleen / Histopathology, Colon: I/I: Inflammation and infiltration; +10A: Numerous nests of T. cruzi amastigotes; +A: 1-3 nests of T. cruzi amastigotes; Negative
Experimental: Three to four week old female C3H mice weighing ca. 20 g were used. The animals were separated into five lots of 5 mice per cage and infected with 10^6 tissue-culture derived trypomastigotes of the myotropic T. cruzi CA-I/72 cloned stock. The mice were treated with 100 mg compound/kg of body weight in 100 µL of solution (30–40% DMSO: 60–70% sterile distilled water) intraperitoneally twice a day. Treatment was initiated 12 h post infection and continued until cure, death of the animals, or for a total of 20 days. […] Parasitemias was determined at the end of the experiment when animals were euthanized. Tissues processed for histopathology include skeletal muscle, heart, liver, spleen, and colon. Blood (5–50 µL) was used for hemocultures. […] Compounds were considered toxic if life expectancy is lower than untreated controls (negative values). If necessary, PCR of blood and tissues was performed to confirm effectiveness of treatment and/or cure of treated animals. Results were expressed as survival (days) of treated animals.

Cathepsin B = biological target: T2, Cathepsin B (Homo sapiens, UniProt P07858); assay: Protease inhibition profiling (Reaction Biology Corp): Cathepsin B; assay type: biochemical
T2 construct: Reaction Biology Corp (screening service)

Cathepsin K = biological target: T3, Cathepsin K (Homo sapiens, UniProt P43235); assay: Protease inhibition profiling (Reaction Biology Corp): Cathepsin K; assay type: biochemical
T3 construct: Reaction Biology Corp (screening service)
T3 sequence (P43235 115-329): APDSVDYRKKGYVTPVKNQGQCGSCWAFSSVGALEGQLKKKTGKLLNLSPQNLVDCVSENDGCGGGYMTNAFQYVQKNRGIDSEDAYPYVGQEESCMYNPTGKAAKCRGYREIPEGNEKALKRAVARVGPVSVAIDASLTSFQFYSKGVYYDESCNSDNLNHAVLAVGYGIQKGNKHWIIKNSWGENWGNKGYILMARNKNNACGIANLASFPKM

Cathepsin L = biological target: T4, Cathepsin L (Homo sapiens, UniProt P07711); assay: Protease inhibition profiling (Reaction Biology Corp): Cathepsin L; assay type: biochemical
T4 construct: Reaction Biology Corp (screening service)

Cathepsin S = biological target: T5, Cathepsin S (Homo sapiens, UniProt P25774); assay: Protease inhibition profiling (Reaction Biology Corp): Cathepsin S; assay type: biochemical
T5 construct: Reaction Biology Corp (screening service)

Cathepsin V = biological target: T6, Cathepsin V (Homo sapiens, UniProt O60911); assay: Protease inhibition profiling (Reaction Biology Corp): Cathepsin V; assay type: biochemical; conditions: read-out: IC50, Cathepsin V
T6 construct: Reaction Biology Corp (screening service)

Papain = biological target: T7, Papain (Carica papaya, UniProt P00784); assay: Protease inhibition profiling (Reaction Biology Corp): Papain; assay type: biochemical
T7 construct: Reaction Biology Corp (screening service)
T7 sequence (P00784 134-345): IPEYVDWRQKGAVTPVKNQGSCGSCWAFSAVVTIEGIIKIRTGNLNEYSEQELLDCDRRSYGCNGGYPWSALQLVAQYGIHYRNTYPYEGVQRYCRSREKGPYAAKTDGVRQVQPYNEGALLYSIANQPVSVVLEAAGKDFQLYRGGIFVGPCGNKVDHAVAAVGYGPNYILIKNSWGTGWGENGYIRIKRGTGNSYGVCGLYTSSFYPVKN

cathepsin H = biological target: T8, cathepsin H (Homo sapiens, UniProt P09668); assay: Protease inhibition profiling (Reaction Biology Corp): cathepsin H; assay type: biochemical; conditions: panel of 70 proteases
T8 construct: Reaction Biology Corp (screening service)
T8 sequence (P09668 98-335): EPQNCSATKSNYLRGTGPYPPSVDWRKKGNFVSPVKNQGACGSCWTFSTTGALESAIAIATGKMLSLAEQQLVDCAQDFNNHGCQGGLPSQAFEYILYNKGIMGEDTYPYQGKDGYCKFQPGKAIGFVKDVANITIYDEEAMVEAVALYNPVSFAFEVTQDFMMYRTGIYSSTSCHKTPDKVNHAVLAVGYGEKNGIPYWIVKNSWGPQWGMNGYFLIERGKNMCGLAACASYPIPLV

[2] = individual infected mice, 100 mg/kg ip
[3] = individual infected mice, 100 mg/kg ip, 100 mg/kg

T1 sequence (P25779 123-337 limits assumed): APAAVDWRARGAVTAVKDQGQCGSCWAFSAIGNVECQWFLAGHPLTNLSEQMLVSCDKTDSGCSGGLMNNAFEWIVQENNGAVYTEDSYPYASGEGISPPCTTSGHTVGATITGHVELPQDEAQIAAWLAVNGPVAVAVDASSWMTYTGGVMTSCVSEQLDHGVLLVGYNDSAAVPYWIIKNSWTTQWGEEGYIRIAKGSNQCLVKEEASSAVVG
T6 sequence (O60911 114-334, species assumed): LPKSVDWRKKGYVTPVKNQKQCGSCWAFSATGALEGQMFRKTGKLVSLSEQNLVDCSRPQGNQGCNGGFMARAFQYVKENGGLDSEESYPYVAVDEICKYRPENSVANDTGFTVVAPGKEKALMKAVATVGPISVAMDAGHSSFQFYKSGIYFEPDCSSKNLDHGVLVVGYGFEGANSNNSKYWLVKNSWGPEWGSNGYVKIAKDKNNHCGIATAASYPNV
T5 sequence (P25774 115-331, species assumed): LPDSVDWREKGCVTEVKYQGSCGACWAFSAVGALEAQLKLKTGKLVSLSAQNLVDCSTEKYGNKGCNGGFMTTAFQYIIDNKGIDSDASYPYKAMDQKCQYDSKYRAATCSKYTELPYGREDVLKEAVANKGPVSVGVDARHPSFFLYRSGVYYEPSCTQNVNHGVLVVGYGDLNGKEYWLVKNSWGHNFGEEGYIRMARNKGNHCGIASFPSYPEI
T4 sequence (P07711 114-333, species assumed): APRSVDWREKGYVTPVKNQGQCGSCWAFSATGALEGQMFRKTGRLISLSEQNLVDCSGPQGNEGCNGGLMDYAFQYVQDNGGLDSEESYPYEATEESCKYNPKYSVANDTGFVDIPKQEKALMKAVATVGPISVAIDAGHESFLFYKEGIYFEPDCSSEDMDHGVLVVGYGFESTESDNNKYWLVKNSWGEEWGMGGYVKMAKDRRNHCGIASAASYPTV

## CN1CCN(C(=O)N[C@@H](CCCNC(=N)N)C(=O)N[C@H](/C=C/S(=O)(=O)c2ccccc2)CCc2ccccc2)CC1 [WRR-483]
Cruzain
  k obs/[I] at 1 µM, Cruzain: 4,800 s^-1 M^-1 and 4,800±480 s^-1 M^-1
[1]; 100 mg inhibitor/kg body weight in two daily doses, intraperitoneally, untreated control 21 days
  T. cruzi infected mouse survival: 110 days
[1]; 10^6 trypomastigotes CA-I/72, untreated controls died within 21–60 days
  survival of the acute infection: survived the acute infection
[1]; [2]
  Histopathology, Colon: N
  Histopathology, Liver: N
  Histopathology, Spleen: N
[1]; [3]
  Histopathology, Heart: N and Mild i/i
  Histopathology, Sk. muscle: Moderate i/i; also recorded: +AIntense i/i
Cathepsin B
  IC50: 3.9 ± 0.1 nM
Cathepsin K
  IC50, Cathepsin K: No inhibition
Cathepsin L
  IC50: 53 ± 4 nM
Cathepsin S
  IC50: 1.4 ± 0.01 nM
Cathepsin V
  IC50: 335 ± 4 nM
Papain
  IC50: 373 ± 44 nM
Cathepsin H
  inhibition of cathepsin H: no inhibition
